Data reported in patent US9657002B2, “Oxindole derivatives carrying an oxetane substituent and use thereof for treating vassopressin-related diseases” (AbbVie Deutschland GmbH & Co. KG, priority 2013, dated 2017).
Like-named read-outs stand apart in the source and are kept apart here.

Legend:
[1] = target: human vasopressin V1a receptor (Homo sapiens, UniProt P37288); assay: Vasopressin V1a receptor binding assay; conditions: selectivity quotient, human V1a vs human V1b
[2] = target: T1, human vasopressin V1b receptor (Homo sapiens, UniProt P47901); assay: biochemical
T1 sequence (P47901 1-424): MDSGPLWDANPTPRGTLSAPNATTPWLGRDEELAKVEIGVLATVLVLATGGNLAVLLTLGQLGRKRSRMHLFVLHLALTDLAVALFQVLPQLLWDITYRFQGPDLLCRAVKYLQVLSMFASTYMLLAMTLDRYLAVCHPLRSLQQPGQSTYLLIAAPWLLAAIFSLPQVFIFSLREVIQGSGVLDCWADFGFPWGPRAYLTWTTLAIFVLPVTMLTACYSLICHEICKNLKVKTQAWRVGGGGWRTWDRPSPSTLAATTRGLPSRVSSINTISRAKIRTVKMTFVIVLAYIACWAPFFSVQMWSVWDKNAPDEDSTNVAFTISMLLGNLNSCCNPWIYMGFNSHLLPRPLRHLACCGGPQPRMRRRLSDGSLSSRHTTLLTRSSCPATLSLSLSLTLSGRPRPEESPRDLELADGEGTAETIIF

[3] = target: T1, human vasopressin V1b receptor; conditions: read-out: Ki(h-V1b)*, CHO-K1 membranes, 3H-AVP displacement

Chain of human vasopressin V1a receptor (P37288 whole entry): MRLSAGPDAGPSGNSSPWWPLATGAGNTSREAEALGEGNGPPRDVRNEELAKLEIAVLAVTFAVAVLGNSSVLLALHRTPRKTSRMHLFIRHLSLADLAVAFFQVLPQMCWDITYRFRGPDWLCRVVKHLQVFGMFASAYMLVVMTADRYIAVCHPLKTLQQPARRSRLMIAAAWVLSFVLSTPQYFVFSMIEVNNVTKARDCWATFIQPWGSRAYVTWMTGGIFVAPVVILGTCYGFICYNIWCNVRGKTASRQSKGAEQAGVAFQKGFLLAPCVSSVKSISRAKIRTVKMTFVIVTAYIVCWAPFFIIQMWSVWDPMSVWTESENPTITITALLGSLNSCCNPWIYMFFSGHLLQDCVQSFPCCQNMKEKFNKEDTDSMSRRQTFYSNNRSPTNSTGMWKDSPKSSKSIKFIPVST

Row | Structure (SMILES) | Ki(h-V1a)/Ki(h-V1b) [1] | Ki [2] | Ki [3]
1 | COc1ccc(S(=O)(=O)N2C(=O)[C@@](NC(=O)N3CCC(N4CCN(C5COC5)CC4)CC3)(c3cccnc3OC)c3cc(C#N)ccc32)c(OC)c1 [Example 31, N-[(3S)-5-cyano-1-(2,4-dimethoxyphenyl)sulfonyl-3-(2-methoxy-3-pyridyl)-2-oxo-indolin-3-yl]-4-[4-(oxetan-3-yl)piperazin-1-yl]piperidine-1-carboxamide] | +++ (>75) | 10 to 100 nM | –
2 | CCOc1ccc(OC)cc1[C@]1(NC(=O)N2CCN(C3CCN(C4COC4)CC3)CC2)C(=O)N(S(=O)(=O)c2ccc(OC)cn2)c2ccc(C#N)cc21 [Example 32, N-[(3S)-5-cyano-3-(2-ethoxy-5-methoxy-phenyl)-1-[(5-methoxy-2-pyridyl)sulfonyl]-2-oxo-indolin-3-yl]-4-[1-(oxetan-3-yl)-4-piperidyl]piperazine-1-carboxamide] | +++ (>75) | 10 to 100 nM | –
3 | CCOc1ccc(OC)cc1[C@]1(NC(=O)N2CCN(C3CCN(C4COC4)CC3)CC2)C(=O)N(S(=O)(=O)c2ccc(OC)cc2OC)c2ccc(C#N)cc21 [Example 33, N-[(3S)-5-cyano-1-(2,4-dimethoxyphenyl)sulfonyl-3-(2-ethoxy-5-methoxy-phenyl)-2-oxo-indolin-3-yl]-4-[1-(oxetan-3-yl)-4-piperidyl]piperazine-1-carboxamide] | +++ (>75) | 1 to 10 nM | –
4 | COc1ccc(S(=O)(=O)N2C(=O)[C@@](NC(=O)N3CCN(C4CCN(C5COC5)CC4)CC3)(c3cccnc3OC)c3cc(C#N)ccc32)cc1 [Example 34, N-[(3S)-5-cyano-1-(4-methoxyphenyl)sulfonyl-3-(2-methoxy-3-pyridyl)-2-oxo-indolin-3-yl]-4-[1-(oxetan-3-yl)-4-piperidyl]piperazine-1-carboxamide] | ++ (25-75) | 10 to 100 nM | –
5 | CCOc1ccc(OC)cc1[C@]1(NC(=O)N2CCN(C3CCN(C4COC4)CC3)CC2)C(=O)N(S(=O)(=O)c2ccc(F)cc2OC)c2ccc(C#N)cc21 [Example 35, N-[(3S)-5-cyano-3-(2-ethoxy-5-methoxy-phenyl)-1-(4-fluoro-2-methoxy-phenyl)sulfonyl-2-oxo-indolin-3-yl]-4-[1-(oxetan-3-yl)-4-piperidyl]piperazine-1-carboxamide] | +++ (>75) | 1 to 10 nM | –
6 | COc1ccc(S(=O)(=O)N2C(=O)[C@@](NC(=O)N3CCC(C4CCN(C5COC5)CC4)CC3)(c3cccnc3OC)c3cc(C#N)ccc32)cc1 [Example 36, N-[(3S)-5-cyano-1-(4-methoxyphenyl)sulfonyl-3-(2-methoxy-3-pyridyl)-2-oxo-indolin-3-yl]-4-[1-(oxetan-3-yl)-4-piperidyl]piperidine-1-carboxamide] | +++ (>75) | 1 to 10 nM | –
7 | COc1cc(F)ccc1S(=O)(=O)N1C(=O)[C@@](NC(=O)N2CCC(C3CCN(C4COC4)CC3)CC2)(c2cccnc2OC)c2cc(C#N)ccc21 [Example 37, N-[(3S)-5-cyano-1-(4-fluoro-2-methoxy-phenyl)sulfonyl-3-(2-methoxy-3-pyridyl)-2-oxo-indolin-3-yl]-4-[1-(oxetan-3-yl)-4-piperidyl]piperidine-1-carboxamide] | +++ (>75) | < 1 nM | –
8 | CCOc1ncccc1[C@]1(NC(=O)N2CC3CC2CN3C2CCN(C3COC3)CC2)C(=O)N(S(=O)(=O)c2ccc(OC)cc2OC)c2ccc(C#N)cc21 (stereo partly drawn) [Example 38, N-[(3S)-5-cyano-1-(2,4-dimethoxyphenyl)sulfonyl-3-(2-ethoxy-3-pyridyl)-2-oxo-indolin-3-yl]-5-[1-(oxetan-3-yl)-4-piperidyl]-2,5-diazabicyclo[2.2.1]heptane-2-carboxamide] | +++ (>75) | 10 to 100 nM | –
9 | COc1ncccc1[C@]1(NC(=O)N2CCC(C3CCN(C4COC4)CC3)CC2)C(=O)N(S(=O)(=O)c2ccc(F)cc2)c2ccc(C#N)cc21 [Example 40, N-[(3S)-5-cyano-1-(4-fluorophenyl)sulfonyl-3-(2-methoxy-3-pyridyl)-2-oxo-indolin-3-yl]-4-[1-(oxetan-3-yl)-4-piperidyl]piperidine-1-carboxamide] | + (10-<25) | 1 to 10 nM | –
10 | COc1ncccc1[C@]1(NC(=O)N2CCN(C3CCN(C4COC4)CC3)CC2)C(=O)N(S(=O)(=O)c2ccc(C#N)cc2)c2ccc(C#N)cc21 [Example 43, N-[(3S)-5-cyano-1-(4-cyanophenyl)sulfonyl-3-(2-methoxy-3-pyridyl)-2-oxo-indolin-3-yl]-4-[1-(oxetan-3-yl)-4-piperidyl]piperazine-1-carboxamide] | + (10-<25) | 10 to 100 nM | –
11 | COc1ccc(S(=O)(=O)N2C(=O)[C@@](NC(=O)N3CCN(C4CCN(C5COC5)CC4)CC3)(c3cccnc3OC(C)C)c3cc(C#N)ccc32)c(OC)c1 [Example 44, N-[(3S)-5-cyano-1-(2,4-dimethoxyphenyl)sulfonyl-3-(2-isopropoxy-3-pyridyl)-2-oxo-indolin-3-yl]-4-[1-(oxetan-3-yl)-4-piperidyl]piperazine-1-carboxamide] | +++ (>75) | 1 to 10 nM | –
12 | COc1cc(C)ccc1S(=O)(=O)N1C(=O)[C@@](NC(=O)N2CCN(C3CCN(C4COC4)CC3)CC2)(c2cccnc2OC)c2cc(C#N)ccc21 [Example 46, N-[(3S)-5-cyano-1-(2-methoxy-4-methyl-phenyl)sulfonyl-3-(2-methoxy-3-pyridyl)-2-oxo-indolin-3-yl]-4-[1-(oxetan-3-yl)-4-piperidyl]piperazine-1-carboxamide] | +++ (>75) | 10 to 100 nM | –
13 | COc1ncccc1[C@]1(NC(=O)N2CCN(C3CCN(C4COC4)CC3)CC2)C(=O)N(S(=O)(=O)c2ccc(C#N)cc2F)c2ccc(C#N)cc21 [Example 47, N-[(3S)-5-cyano-1-(4-cyano-2-fluoro-phenyl)sulfonyl-3-(2-methoxy-3-pyridyl)-2-oxo-indolin-3-yl]-4-[1-(oxetan-3-yl)-4-piperidyl]piperazine-1-carboxamide] | ++ (25-75) | 10 to 100 nM | –
14 | COc1ccccc1S(=O)(=O)N1C(=O)[C@@](NC(=O)N2CCC(C3CCN(C4COC4)CC3)CC2)(c2cccnc2OC)c2cc(C#N)ccc21 [Example 49, (S)—N-(5-cyano-1-((2-methoxyphenyl)sulfonyl)-3-(2-methoxypyridin-3-yl)-2-oxoindolin-3-yl)-1′-(oxetan-3-yl)-[4,4′-bipiperidine]-1-carboxamide] | +++ (>75) | 1 to 10 nM | –
15 | COc1ncccc1[C@]1(NC(=O)N2CCC(C3CCN(C4COC4)CC3)CC2)C(=O)N(S(=O)(=O)c2ccccc2)c2ccc(C#N)cc21 [Example 50, (S)—N-(5-cyano-3-(2-methoxypyridin-3-yl)-2-oxo-1-(phenylsulfonyl)indolin-3-yl)-1′-(oxetan-3-yl)-[4,4′-bipiperidine]-1-carboxamide] | ++ (25-75) | 10 to 100 nM | –
16 | CCOc1ncccc1[C@]1(NC(=O)N2CCN(C3CCN(C4(C)COC4)CC3)CC2)C(=O)N(S(=O)(=O)c2ccc(OC)cc2OC)c2ccc(C#N)cc21 [Example 51, (S)—N-(5-cyano-1-((2,4-dimethoxyphenyl)sulfonyl)-3-(2-ethoxypyridin-3-yl)-2-oxoindolin-3-yl)-4-(1-(3-methyloxetan-3-yl)piperidin-4-yl)piperazine-1-carboxamide] | +++ (>75) | 1 to 10 nM | –
17 | COc1ccc(S(=O)(=O)N2C(=O)[C@@](NC(=O)N3CCN(C4CCN(C5(C)COC5)CC4)CC3)(c3cccnc3OC)c3cc(C#N)ccc32)c(OC)c1.O=C(O)C(F)(F)F.O=C(O)C(F)(F)F [Example 52, (S)—N-(5-cyano-1-((2,4-dimethoxyphenyl)sulfonyl)-3-(2-methoxypyridin-3-yl)-2-oxoindolin-3-yl)-4-(1-(3-methyloxetan-3-yl)piperidin-4-yl)piperazine-1-carboxamide, 2 trifluoroacetic acid] | +++ (>75) | – | 1 to 10 nM
18 | COc1ccc(S(=O)(=O)N2C(=O)[C@@](NC(=O)N3CCN(C4CCN(C5COC5C)CC4)CC3)(c3cccnc3OC)c3cc(C#N)ccc32)c(OC)c1.O=C(O)C(F)(F)F.O=C(O)C(F)(F)F (stereo partly drawn) [Example 53, N—((S)-5-cyano-1-((2,4-dimethoxyphenyl)sulfonyl)-3-(2-methoxypyridin-3-yl)-2-oxoindolin-3-yl)-4-(1-(2-methyloxetan-3-yl)piperidin-4-yl)piperazine-1-carboxamide, 2 trifluoroacetic acid] | ++ (25-75) | – | 1 to 10 nM
19 | COc1ccc(S(=O)(=O)N2C(=O)[C@@](NC(=O)N3CCN(C4CCN(C5COC5)CC4)CC3)(c3cc(OC)ccc3OC)c3cc(C#N)ccc32)c(OC)c1 [Example 54, (S)—N-(5-cyano-3-(2,5-dimethoxyphenyl)-1-((2,4-dimethoxyphenyl)sulfonyl)-2-oxoindolin-3-yl)-4-(1-(oxetan-3-yl)piperidin-4-yl)piperazine-1-carboxamide] | ++ (25-75) | < 1 nM | –
20 | COc1ccc(S(=O)(=O)N2C(=O)[C@@](NC(=O)N3CCC(C4CCN(C5COC5)CC4)CC3)(c3cc(OC)ccc3OC)c3cc(C#N)ccc32)c(OC)c1 [Example 55, (S)—N-(5-cyano-3-(2,5-dimethoxyphenyl)-1-((2,4-dimethoxyphenyl)sulfonyl)-2-oxoindolin-3-yl)-1′-(oxetan-3-yl)-[4,4′-bipiperidine]-1-carboxamide] | + (10-<25) | < 1 nM | –
